We go through 21 compounds from patent US10287255B2, “Compounds as histone deacetylase 6 inhibitors and pharmaceutical compositions comprising the same” (CHONG KUN DANG PHARMACEUTICAL CORP., priority 2014, dated 2019).

One experiment concerns the target T1, human recombinant HDAC6 (Homo sapiens, UniProt Q9UBN7).
T1 construct: purchased Calbiochem 382180
T1 sequence (Q9UBN7 1-1215): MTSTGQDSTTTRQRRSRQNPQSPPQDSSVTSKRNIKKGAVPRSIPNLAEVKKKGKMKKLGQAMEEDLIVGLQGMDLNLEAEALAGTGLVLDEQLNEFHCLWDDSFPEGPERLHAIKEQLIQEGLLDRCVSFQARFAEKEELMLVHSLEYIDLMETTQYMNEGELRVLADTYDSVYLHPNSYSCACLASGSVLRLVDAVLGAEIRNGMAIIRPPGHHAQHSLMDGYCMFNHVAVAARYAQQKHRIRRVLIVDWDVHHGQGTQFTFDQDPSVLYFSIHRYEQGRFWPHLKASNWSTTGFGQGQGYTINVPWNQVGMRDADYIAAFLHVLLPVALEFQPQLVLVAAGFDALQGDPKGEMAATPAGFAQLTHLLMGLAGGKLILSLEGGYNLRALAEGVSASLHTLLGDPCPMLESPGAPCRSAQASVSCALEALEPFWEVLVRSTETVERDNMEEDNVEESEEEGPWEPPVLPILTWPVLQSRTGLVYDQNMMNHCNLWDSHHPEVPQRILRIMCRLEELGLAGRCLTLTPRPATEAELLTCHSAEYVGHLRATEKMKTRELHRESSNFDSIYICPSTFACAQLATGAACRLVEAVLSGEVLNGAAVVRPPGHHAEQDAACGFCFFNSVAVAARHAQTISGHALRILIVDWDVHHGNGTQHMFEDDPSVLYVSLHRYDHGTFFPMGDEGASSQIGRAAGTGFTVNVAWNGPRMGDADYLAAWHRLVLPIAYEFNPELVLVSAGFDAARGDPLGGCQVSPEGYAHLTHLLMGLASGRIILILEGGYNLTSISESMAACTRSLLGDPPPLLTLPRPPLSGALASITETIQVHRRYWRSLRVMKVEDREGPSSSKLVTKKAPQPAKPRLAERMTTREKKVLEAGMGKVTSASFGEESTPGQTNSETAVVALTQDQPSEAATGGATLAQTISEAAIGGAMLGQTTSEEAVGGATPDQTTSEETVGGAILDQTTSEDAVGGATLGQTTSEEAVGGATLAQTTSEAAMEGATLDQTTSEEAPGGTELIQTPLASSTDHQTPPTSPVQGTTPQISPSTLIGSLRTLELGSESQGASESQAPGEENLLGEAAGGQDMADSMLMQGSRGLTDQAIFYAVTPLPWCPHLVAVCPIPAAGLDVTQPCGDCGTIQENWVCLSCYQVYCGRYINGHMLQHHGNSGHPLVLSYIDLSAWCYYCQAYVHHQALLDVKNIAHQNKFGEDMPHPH
The experiment can be described thus: HDAC6 enzyme activity inhibition assay (in vitro, fluorimetric). Format: biochemical. Conditions: for HDAC6 selectivity (fold): HDAC6 selectivity over HDAC1; for IC50: human recombinant HDAC6, fluorimetric kit, same protocol as HDAC1. In short, it runs like this: (§1)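 IC50 values derive from fluorescence (Ex 360, Em 460) after developer treatment (30 min) of reactions of recombinant human HDAC1 or HDAC6 with 10 μM Fluor de Lys-SIRT1 substrate (60 min, 30 °C). Compounds were serially diluted 5-fold; 0.3 μg enzyme was used for HDAC1, with HDAC6 tested identically.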

The target in the next experiment is T2, human recombinant HDAC1 (Homo sapiens, UniProt Q13547).
T2 construct: purchased Enzo Life Science BML-SE456
T2 sequence (Q13547 whole entry): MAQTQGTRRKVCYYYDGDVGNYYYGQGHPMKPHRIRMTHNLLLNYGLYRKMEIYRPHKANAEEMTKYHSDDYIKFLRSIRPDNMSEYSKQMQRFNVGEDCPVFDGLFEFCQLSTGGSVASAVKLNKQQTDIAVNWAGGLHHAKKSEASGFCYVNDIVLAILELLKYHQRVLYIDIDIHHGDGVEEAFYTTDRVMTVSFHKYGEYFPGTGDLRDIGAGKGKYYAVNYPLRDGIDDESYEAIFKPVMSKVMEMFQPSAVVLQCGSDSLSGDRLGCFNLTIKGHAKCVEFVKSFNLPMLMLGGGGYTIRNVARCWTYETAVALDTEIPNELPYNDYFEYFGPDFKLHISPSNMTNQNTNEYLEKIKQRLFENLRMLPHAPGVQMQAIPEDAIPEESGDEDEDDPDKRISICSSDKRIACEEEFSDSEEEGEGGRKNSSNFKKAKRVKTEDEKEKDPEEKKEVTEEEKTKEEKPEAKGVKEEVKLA
Kind of experiment: HDAC1 enzyme activity inhibition assay (in vitro, fluorimetric). In kind it is biochemical. Conditions: human recombinant HDAC1, fluorimetric kit, 30° C. 60 minutes. In short, it runs like this: as §1

As for `C[C@@H]1CN(Cc2ccc(/C=C/C(=O)NO)cc2)C[C@H](C)N1C(=O)Cc1ccccc1` [Compound 323, (E)-3-(4-(((3R,5S)-3,5-dimethyl-4-(2-phenylacetyl)piperazin-1-yl)methyl)phenyl)-N-hydroxyacrylamide], on human recombinant HDAC6, the “HDAC6 selectivity (fold)” value was over 11 fold and the IC50 is 921 nM. For the same compound, at human recombinant HDAC1, the IC50 is over 10000 nM.
On the same counts, the results for `C[C@@H]1CN(Cc2ccc(C(=O)NO)cc2)C[C@H](C)N1Cc1cccc(F)c1` [Compound 225, 4-(((3R,5S)-4-(3-fluorobenzyl)-3,5-dimethylpiperazin-1-yl)methyl)-N-hydroxybenzamide] are 36 fold, 52 nM and 1900 nM.
As to `C[C@@H]1CN(Cc2ccc(C(=O)NO)cc2)C[C@H](C)N1Cc1ccc2ccccc2c1` [Compound 265, 4-(((3R,5S)-3,5-dimethyl-4-(naphthalen-2-ylmethyl)piperazin-1-yl)methyl)-N-hydroxybenzamide], on human recombinant HDAC6, the “HDAC6 selectivity (fold)” value turned out to be 84 fold and the IC50 was 74 nM. Further, on human recombinant HDAC1, the half-inhibitory concentration (IC50) stood at 6200 nM.
In the case of `C[C@@H]1CN(Cc2ccc(C(=O)NO)cc2)C[C@H](C)N1Cc1ccc(OCC2CCN(CC(C)(C)F)CC2)cc1` [Compound 388, 4-(((3R,5S)-4-(4-((1-(2-fluoro-2-methylpropyl)piperidin-4-yl)methoxy)benzyl)-3,5-dimethylpiperazin-1-yl)methyl)-N-hydroxybenzamide], at human recombinant HDAC6, the “HDAC6 selectivity (fold)” value was 109 fold and the concentration for half-maximal inhibition (IC50) worked out at 83 nM. For the same compound, on human recombinant HDAC1, the IC50 is 9000 nM.
In the case of `C[C@@H]1CN(Cc2ccc(C(=O)NO)cc2)C[C@H](C)N1CC(F)(F)F` [Compound 149, 4-(((3R,5S)-3,5-dimethyl-4-(2,2,2-trifluoroethyl)piperazin-1-yl)methyl)-N-hydroxybenzamide], on human recombinant HDAC6, the “HDAC6 selectivity (fold)” value was over 125 fold and the IC50 was 80 nM. Moreover, the IC50 on human recombinant HDAC1 was over 10000 nM.
As for `C[C@@H]1CN(Cc2ccc(C(=O)NO)cc2)C[C@H](C)N1C(=O)c1ccco1` [Compound 125, 4-(((3R,5S)-4-(furan-2-carbonyl)-3,5-dimethylpiperazin-1-yl)methyl)-N-hydroxybenzamide], on human recombinant HDAC6, the “HDAC6 selectivity (fold)” value is on record as over 3333 fold and the IC50 is 3 nM. Also, the IC50 on human recombinant HDAC1 is over 10000 nM.
On the same counts, the results for `C[C@@H]1CN(Cc2ccc(C(=O)NO)cc2)C[C@H](C)N1C(=O)Nc1ccccc1` [Compound 159, (2S,6R)-4-(4-(hydroxycarbamoyl)benzyl)-2,6-dimethyl-N-phenylpiperazine-1-carboxamide] are 109 fold, 33 nM and 3600 nM.
On the same counts, the results for `CCC(=O)N1[C@H](C)CN(Cc2ccc(C(=O)NO)cc2)C[C@@H]1C` [Compound 293, 4-(((3R,5S)-3,5-dimethyl-4-propionylpiperazin-1-yl)methyl)-N-hydroxybenzamide] are 44 fold, 131 nM and 5800 nM.
On the same counts, the results for `C[C@@H]1CN(Cc2ccc(C(=O)NO)cc2)C[C@H](C)N1Cc1ccccc1Cl` [Compound 127, 4-(((3R,5S)-4-(2-chlorobenzyl)-3,5-dimethylpiperazin-1-yl)methyl)-N-hydroxybenzamide] are over 909 fold, 11 nM and over 10000 nM.
For `C[C@@H]1CN(C(=O)Nc2cccc(Cl)c2)C[C@H](C)N1Cc1ccc(C(=O)NO)cc1` [Compound 104, (3R,5S)-N-(3-chlorophenyl)-4-(4-(hydroxycarbamoyl)benzyl)-3,5-dimethylpiperazine-1-carboxamide], on human recombinant HDAC6, the “HDAC6 selectivity (fold)” value worked out at 9 fold. For the same compound, the IC50 at human recombinant HDAC6 came out at 82 nM; at human recombinant HDAC1, 700 nM.
For `C[C@@H]1CN(Cc2ccc(C(=O)NO)cc2)C[C@H](C)N1Cc1ccccc1-c1ccoc1` [Compound 328, 4-(((3R,5S)-4-(2-(furan-3-yl)benzyl)-3,5-dimethylpiperazin-1-yl)methyl)-N-hydroxybenzamide], at human recombinant HDAC6, the “HDAC6 selectivity (fold)” value is reported as 183 fold and the IC50 stood at 102 nM. Moreover, the IC50 at human recombinant HDAC1 was found to be 18700 nM.
On the same counts, the results for `C[C@@H]1CN(Cc2ccc(-n3ccnc3)cc2)C[C@H](C)N1Cc1ccc(C(=O)NO)cc1` [Compound 301, 4-(((2S,6R)-4-(4-(1H-imidazol-1-yl)benzyl)-2,6-dimethylpiperazin-1-yl)methyl)-N-hydroxybenzamide] are 11 fold, 253 nM and 2800 nM.
On the same counts, the results for `C[C@@H]1CN(Cc2ccc(C(=O)NO)cc2)C[C@H](C)N1Cc1cccc(CN2CCN(C)CC2)c1` [Compound 428, 4-(((3R,5S)-3,5-dimethyl-4-(3-((4-methylpiperazin-1-yl)methyl)benzyl)piperazin-1-yl)methyl)-N-hydroxybenzamide] are 41 fold, 117 nM and 4700 nM.
On the same counts, the results for `C[C@@H]1CN(S(=O)(=O)c2ccc(C(=O)NO)cc2)C[C@H](C)N1Cc1ccccc1` [Compound 818, 4-(((3R,5S)-4-benzyl-3,5-dimethylpiperazin-1-yl)sulfonyl)-N-hydroxybenzamide] are over 11 fold, 870 nM and over 10000 nM.
Turning to `C[C@@H]1CN(c2ccc(F)cc2)C[C@H](C)N1Cc1ccc(C(=O)NO)cc1` [Compound 119, 4-(((2S,6R)-4-(4-fluorophenyl)-2,6-dimethylpiperazin-1-yl)methyl)-N-hydroxybenzamide], at human recombinant HDAC6, the “HDAC6 selectivity (fold)” value is listed as 26 fold and the IC50 was found to be 309 nM. Further, the IC50 on human recombinant HDAC1 is 8200 nM.
In the case of `C[C@@H]1CN(Cc2ccc(/C=C/C(=O)NO)cc2)C[C@H](C)N1Cc1ccccc1` [Compound 172, (E)-3-(4-(((3R,5S)-4-benzyl-3,5-dimethylpiperazin-1-yl)methyl)phenyl)-N-hydroxyacrylamide], at human recombinant HDAC6, the “HDAC6 selectivity (fold)” value is given as 35 fold and the 50% inhibitory concentration (IC50) was 38 nM. The IC50 on human recombinant HDAC1 came out at 1300 nM.
On the same counts, the results for `CCCCN1C[C@@H](C)N(Cc2ccc(C(=O)NO)cc2)[C@@H](C)C1` [Compound 274, 4-(((2S,6R)-4-butyl-2,6-dimethylpiperazin-1-yl)methyl)-N-hydroxybenzamide] are 36 fold, 378 nM and 13500 nM.
As to `C[C@@H]1CN(C(=O)c2ccccc2Cl)C[C@H](C)N1Cc1ccc(C(=O)NO)cc1` [Compound 108, 4-(((2S,6R)-4-(2-chlorobenzoyl)-2,6-dimethylpiperazin-1-yl)methyl)-N-hydroxybenzamide], on human recombinant HDAC6, the “HDAC6 selectivity (fold)” value was 79 fold and the 50% inhibitory concentration (IC50) amounted to 166 nM. The IC50 at human recombinant HDAC1 was found to be 13100 nM.
On the same counts, the results for `C[C@@H]1CN(Cc2ccc(C3=CCC(C)(C)CC3)cc2)C[C@H](C)N1Cc1ccc(C(=O)NO)cc1` [Compound 400, 4-(((2S,6R)-4-((4′,4′-dimethyl-2′,3′,4′,5′-tetrahydro-[1,1′-biphenyl]-4-yl)methyl)-2,6-dimethylpiperazin-1-yl)methyl)-N-hydroxybenzamide] are 4 fold, 2820 nM and 11300 nM.
On the same counts, the results for `C[C@@H]1CN(S(=O)(=O)c2ccccc2)C[C@H](C)N1Cc1ccc(C(=O)NO)cc1` [Compound 105, 4-(((2S,6R)-2,6-dimethyl-4-(phenylsulfonyl)piperazin-1-yl)methyl)-N-hydroxybenzamide] are 27 fold, 60 nM and 1600 nM.
On the same counts, the results for `C[C@@H]1CN(Cc2ccc(C(=O)NO)cc2)C[C@H](C)N1Cc1cccc(CN2CCCC2)c1` [Compound 427, 4-(((3R,5S)-3,5-dimethyl-4-(3-(pyrrolidin-1-ylmethyl)benzyl)piperazin-1-yl)methyl)-N-hydroxybenzamide] are 40 fold, 152 nM and 6000 nM.

Broadly, the IC50 is the concentration that gives 50% inhibition.
